Data published in the NIST ThermoML archive (doi:10.1016/j.jct.2004.07.024).
Numbers after ± are expanded uncertainties.

Experiment: xn = mol fraction of the nth substance listed
Settings: 101.33 kPa, Liquid

C[S+](C)[O-] [dimethyl sulfoxide] + c1ccccc1
mass density (293.15 K, x2 = 0.0589): 1084.47 ± 0.3 kg/m3
mass density (293.15 K, x2 = 0.1255): 1067.5 ± 0.28 kg/m3
mass density (293.15 K, x2 = 0.1852): 1052.58 ± 0.26 kg/m3
mass density (293.15 K, x2 = 0.2561): 1035.37 ± 0.24 kg/m3
mass density (293.15 K, x2 = 0.2934): 1026.52 ± 0.23 kg/m3
mass density (293.15 K, x2 = 0.3345): 1016.91 ± 0.22 kg/m3
mass density (293.15 K, x2 = 0.3782): 1006.87 ± 0.2 kg/m3
mass density (293.15 K, x2 = 0.4312): 994.89 ± 0.2 kg/m3
mass density (293.15 K, x2 = 0.4757): 985.02 ± 0.21 kg/m3
mass density (293.15 K, x2 = 0.5963): 958.97 ± 0.24 kg/m3
mass density (293.15 K, x2 = 0.6875): 939.81 ± 0.26 kg/m3
mass density (293.15 K, x2 = 0.7369): 929.61 ± 0.27 kg/m3
mass density (293.15 K, x2 = 0.8637): 903.71 ± 0.31 kg/m3
mass density (293.15 K, x2 = 0.9562): 885.02 ± 0.33 kg/m3
mass density (303.15 K, x2 = 0.0596): 1075.16 ± 0.29 kg/m3
mass density (303.15 K, x2 = 0.1345): 1056.18 ± 0.27 kg/m3
mass density (303.15 K, x2 = 0.194): 1041.49 ± 0.25 kg/m3
mass density (303.15 K, x2 = 0.2473): 1028.63 ± 0.23 kg/m3
mass density (303.15 K, x2 = 0.2893): 1018.74 ± 0.22 kg/m3
mass density (303.15 K, x2 = 0.3465): 1005.44 ± 0.2 kg/m3
mass density (303.15 K, x2 = 0.4213): 988.61 ± 0.21 kg/m3
mass density (303.15 K, x2 = 0.4835): 974.94 ± 0.22 kg/m3
mass density (303.15 K, x2 = 0.5431): 962.12 ± 0.23 kg/m3
mass density (303.15 K, x2 = 0.5968): 950.76 ± 0.25 kg/m3
mass density (303.15 K, x2 = 0.6763): 934.26 ± 0.27 kg/m3
mass density (303.15 K, x2 = 0.7781): 913.49 ± 0.29 kg/m3
mass density (303.15 K, x2 = 0.8511): 898.8 ± 0.31 kg/m3
mass density (303.15 K, x2 = 0.9542): 878.27 ± 0.34 kg/m3
mass density (313.15 K, x2 = 0.059): 1064.91 ± 0.28 kg/m3
mass density (313.15 K, x2 = 0.1267): 1047.76 ± 0.25 kg/m3
mass density (313.15 K, x2 = 0.1873): 1032.78 ± 0.23 kg/m3
mass density (313.15 K, x2 = 0.2676): 1013.53 ± 0.21 kg/m3
mass density (313.15 K, x2 = 0.2933): 1007.51 ± 0.2 kg/m3
mass density (313.15 K, x2 = 0.3378): 997.22 ± 0.2 kg/m3
mass density (313.15 K, x2 = 0.4321): 976.04 ± 0.22 kg/m3
mass density (313.15 K, x2 = 0.4752): 966.67 ± 0.23 kg/m3
mass density (313.15 K, x2 = 0.5514): 950.39 ± 0.25 kg/m3
mass density (313.15 K, x2 = 0.6011): 939.97 ± 0.26 kg/m3
mass density (313.15 K, x2 = 0.6837): 923 ± 0.28 kg/m3
mass density (313.15 K, x2 = 0.7653): 906.53 ± 0.3 kg/m3
mass density (313.15 K, x2 = 0.8681): 886.1 ± 0.33 kg/m3
mass density (313.15 K, x2 = 0.9499): 870 ± 0.35 kg/m3
mass density (323.15 K, x2 = 0.0602): 1054.55 ± 0.26 kg/m3
mass density (323.15 K, x2 = 0.1257): 1038.36 ± 0.24 kg/m3
mass density (323.15 K, x2 = 0.1833): 1024.43 ± 0.22 kg/m3
mass density (323.15 K, x2 = 0.2512): 1008.48 ± 0.21 kg/m3
mass density (323.15 K, x2 = 0.3294): 990.67 ± 0.2 kg/m3
mass density (323.15 K, x2 = 0.3931): 976.6 ± 0.22 kg/m3
mass density (323.15 K, x2 = 0.4615): 961.88 ± 0.23 kg/m3
mass density (323.15 K, x2 = 0.5232): 948.95 ± 0.25 kg/m3
mass density (323.15 K, x2 = 0.5972): 933.77 ± 0.27 kg/m3
mass density (323.15 K, x2 = 0.6502): 923.09 ± 0.28 kg/m3
mass density (323.15 K, x2 = 0.7149): 910.25 ± 0.3 kg/m3
mass density (323.15 K, x2 = 0.7896): 895.64 ± 0.32 kg/m3
mass density (323.15 K, x2 = 0.8788): 878.39 ± 0.34 kg/m3
mass density (323.15 K, x2 = 0.9556): 863.66 ± 0.36 kg/m3
mass density (333.15 K, x2 = 0.0593): 1044.75 ± 0.25 kg/m3
mass density (333.15 K, x2 = 0.1279): 1028.18 ± 0.23 kg/m3
mass density (333.15 K, x2 = 0.1801): 1015.83 ± 0.21 kg/m3
mass density (333.15 K, x2 = 0.2566): 998.31 ± 0.2 kg/m3
mass density (333.15 K, x2 = 0.3263): 982.84 ± 0.21 kg/m3
mass density (333.15 K, x2 = 0.3862): 969.9 ± 0.23 kg/m3
mass density (333.15 K, x2 = 0.4523): 955.99 ± 0.24 kg/m3
mass density (333.15 K, x2 = 0.5213): 941.87 ± 0.26 kg/m3
mass density (333.15 K, x2 = 0.5869): 928.72 ± 0.27 kg/m3
mass density (333.15 K, x2 = 0.6532): 915.7 ± 0.29 kg/m3
mass density (333.15 K, x2 = 0.7256): 901.71 ± 0.31 kg/m3
mass density (333.15 K, x2 = 0.7959): 888.33 ± 0.33 kg/m3
mass density (333.15 K, x2 = 0.8864): 871.29 ± 0.35 kg/m3
mass density (333.15 K, x2 = 0.9116): 866.58 ± 0.36 kg/m3
mass density (343.15 K, x2 = 0.0593): 1034.67 ± 0.24 kg/m3
mass density (343.15 K, x2 = 0.1356): 1016.68 ± 0.22 kg/m3
mass density (343.15 K, x2 = 0.2182): 997.86 ± 0.2 kg/m3
mass density (343.15 K, x2 = 0.2636): 987.78 ± 0.21 kg/m3
mass density (343.15 K, x2 = 0.3296): 973.51 ± 0.22 kg/m3
mass density (343.15 K, x2 = 0.3938): 960.01 ± 0.24 kg/m3
mass density (343.15 K, x2 = 0.4686): 944.74 ± 0.25 kg/m3
mass density (343.15 K, x2 = 0.5213): 934.26 ± 0.27 kg/m3
mass density (343.15 K, x2 = 0.5769): 923.38 ± 0.28 kg/m3
mass density (343.15 K, x2 = 0.6623): 907.03 ± 0.3 kg/m3
mass density (343.15 K, x2 = 0.7385): 892.7 ± 0.32 kg/m3
mass density (343.15 K, x2 = 0.7801): 884.99 ± 0.33 kg/m3
mass density (343.15 K, x2 = 0.8569): 870.86 ± 0.35 kg/m3
mass density (343.15 K, x2 = 0.9503): 853.81 ± 0.38 kg/m3
mass density (353.15 K, x2 = 0.058): 1024.84 ± 0.23 kg/m3
mass density (353.15 K, x2 = 0.1585): 1001.73 ± 0.2 kg/m3
mass density (353.15 K, x2 = 0.2335): 985.09 ± 0.21 kg/m3
mass density (353.15 K, x2 = 0.3065): 969.42 ± 0.23 kg/m3
mass density (353.15 K, x2 = 0.3765): 954.93 ± 0.24 kg/m3
mass density (353.15 K, x2 = 0.4187): 946.35 ± 0.25 kg/m3
mass density (353.15 K, x2 = 0.4682): 936.49 ± 0.27 kg/m3
mass density (353.15 K, x2 = 0.5242): 925.57 ± 0.28 kg/m3
mass density (353.15 K, x2 = 0.5912): 912.8 ± 0.3 kg/m3
mass density (353.15 K, x2 = 0.6404): 903.56 ± 0.31 kg/m3
mass density (353.15 K, x2 = 0.7556): 882.4 ± 0.34 kg/m3
mass density (353.15 K, x2 = 0.8024): 873.93 ± 0.35 kg/m3
mass density (353.15 K, x2 = 0.8701): 861.79 ± 0.36 kg/m3
mass density (353.15 K, x2 = 0.9284): 851.4 ± 0.38 kg/m3
